# Laboratory results published in patent US20220288057A1, “CONJOINT THERAPY FOR TREATING SEIZURE DISORDERS” (XENON PHARMACEUTICALS INC., priority 2021, published 2022).
# Values joined by “and” are separate entries in the source; they are usually repeats but may differ in a detail not shown here. Identical values can stand only once. Like-named read-outs stand apart in the source and are kept apart here. Marks after values point to notes of the source that are not given here.
# Columns and labels:
# [1] = test system: 6 Hz psychomotor seizures in CF-1 mice; experiment: Mouse 6 Hz psychomotor seizure assay (34 milliampere, 3 s); format: in vivo
# Procedure: It was evaluated whether the combination of both compounds is favorable or unfavorable for efficacy by dosing Compound A and Levetiracetam alone and in combination, each at a dose that produces sub-maximal efficacy on its own. […] Plasma and brain samples were analyzed to gain an understanding of how the combination of Compound A and Levetiracetam may affect pharmacokinetics and pharmacodynamics. […] 6 Hz Psychomotor Seizure Assay: […] The animal was then securely restrained and a pair of electrodes was applied to the eyes (Electro Convulsive Therapy Unit 57800, Ugo Basile). […] Data Processing and Analysis: Statistical data analysis was performed using GraphPad Prism (version 8.2.1). Dose-response data was analyzed using a Kruskal-Wallis test, followed by Dunn's multiple comparisons. […] Dose- and concentration-response curves were generated using the Hill Langmuir equation: […]
# [2] = Plasma and brain concentrations in 6 Hz studies (LC-MS/MS); format: in vivo, mouse
# Procedure: Sample Collection and Preparation: Mice were anesthetized by isoflurane inhalation (TECH-018) until they reached a surgical plane of anesthesia. Then a syringe (1 mL syringe with a 22 gauge needle) was inserted under the sternum into the heart (TECH-031). Approximately 0.5 mL of blood was collected, deposited into a K2EDTA tube, and stored on ice. Animals were then euthanized by cervical dislocation (TECH-018). Brains were removed, placed into a pre-weighed vial, and snap frozen on dry ice. At the end of the sample collection, blood was centrifuged at 4000 rpm for 10 minutes at 4° C., and the plasma pipetted into a labeled tube. All samples were stored in a −80° C. freezer until bioanalysis (8 days after sample collection for Studies 3A and 3B; 20 days after sample collection for Study 3C).
# Plasma and Tissue Sample Analysis: Bead mill polypropylene tubes containing weighed brain tissues were thawed at room temperature and 3 mL of homogenization solvent (water:acetonitrile (1:1, v:v)) was added. The tubes were placed in the Bead Mill Homogenizer (Bead Ruptor Elite Model, Omni International) and shaken at a velocity of 3.70 m/s for a single cycle lasting 30 seconds. The homogenized tube was centrifuged at 4000 rpm for 20 minutes, the supernatant was transferred to a 1.5 mL Eppendorf tube, and stored frozen at −80° C. until analysis. All samples including plasma and brain homogenate extracts (including calibration and quality control (QC) samples prepared in K2EDTA rat plasma), were extracted by protein precipitation. […] The samples in the 1.5 mL tubes were vortex mixed and then centrifuged for 20 minutes at 13,000 rpm. Fifty microliters of the supernatant was mixed with 150 μL of water/acetonitrile (1:1) in a 96 well plate which was centrifuged post mixing for 20 minutes at 4000 rpm, and was then ready for analysis by liquid chromatography tandem mass spectrometry (LC-MS/MS).
# Samples were analyzed by a research-grade LC-MS/MS method as follows: […]
structure (smiles),measurement,setting,value
"Cc1cc(N2CCc3cc(F)ccc3C2)cc(C)c1NC(=O)CC(C)(C)C [Compound A, N-[4-(6-fluoro-3,4-dihydro-1H-isoquinolin-2-yl)-2,6-dimethylphenyl]-3,3-dimethylbutanamide]",ED20,"[1]; Compound A PO 1 h, Study 3A dose response curve",4 mg/kg and 4.13 mg/kg
same,ED50,"[1]; Mus musculus, Compound A PO 1 h, Study 3A dose response curve",6.48 mg/kg
same,EC50,"[1]; Mus musculus, Compound A PO 1 h, Study 3A, read-out: brain EC50",540 nM
same,EC50,"[1]; Mus musculus, Compound A PO 1 h, Study 3A, read-out: plasma EC50",350 nM
same,Fraction Seizing,"[1]; Studies 3B+3C combined, Compound A 4 mg/kg PO 1 h alone",13/14*
same,Fraction Seizing,"[1]; Study 3A, Compound A 1 mg/kg PO, 1 h",8/8
same,Fraction Seizing,"[1]; Study 3A, Compound A 3 mg/kg PO, 1 h",8/8
same,Fraction Seizing,"[1]; Study 3A, Compound A 5 mg/kg PO, 1 h",5/8
same,Fraction Seizing,"[1]; Study 3A, Compound A 8 mg/kg PO, 1 h",3/8
same,Fraction Seizing,"[1]; Study 3B, Compound A 4 mg/kg PO 1 h alone",8/8
same,Fraction Seizing,"[1]; Study 3C, Compound A 4 mg/kg PO 1 h alone",5/6*
same,animals protected from seizing,"[1]; Study 3C, Compound A 4 mg/kg PO alone",1/7
same,fold higher brain concentration of Compound A in Study 3C compared to Study 3B,[2]; 1 hour post dosing,11 fold
same,fold higher plasma concentration of Compound A in Study 3C compared to Study 3B,[2]; 1 hour post dosing,12 fold
same,concentration at 1 h,"[2]; CF-1, mouse, brain, po, 1 mg/kg, Study 3A, Compound A 1 mg/kg PO, 1 h, read-out: Brain",90 nM
same,concentration at 1 h,"[2]; CF-1, mouse, brain, po, 3 mg/kg, Study 3A, Compound A 3 mg/kg PO, 1 h, read-out: Brain",260 nM
same,concentration at 1 h,"[2]; CF-1, mouse, brain, po, 4 mg/kg, Study 3B, Compound A 4 mg/kg PO 1 h alone, read-out: Brain",30 ± 20 nM
same,concentration at 1 h,"[2]; CF-1, mouse, brain, po, 4 mg/kg, Study 3C, Compound A 4 mg/kg PO 1 h alone, read-out: Brain",410 ± 230 nM
same,concentration at 1 h,"[2]; CF-1, mouse, brain, po, 5 mg/kg, Study 3A, Compound A 5 mg/kg PO, 1 h, read-out: Brain",290 nM
same,concentration at 1 h,"[2]; CF-1, mouse, brain, po, 8 mg/kg, Study 3A, Compound A 8 mg/kg PO, 1 h, read-out: Brain",700 ± 410 nM
same,concentration at 1 h,"[2]; CF-1, mouse, plasma, po, 1 mg/kg, Study 3A, Compound A 1 mg/kg PO, 1 h, read-out: Plasma",40 nM
same,concentration at 1 h,"[2]; CF-1, mouse, plasma, po, 3 mg/kg, Study 3A, Compound A 3 mg/kg PO, 1 h, read-out: Plasma",150 nM
same,concentration at 1 h,"[2]; CF-1, mouse, plasma, po, 4 mg/kg, Study 3B, Compound A 4 mg/kg PO 1 h alone, read-out: Plasma",14 ± 9 nM
same,concentration at 1 h,"[2]; CF-1, mouse, plasma, po, 4 mg/kg, Study 3C, Compound A 4 mg/kg PO 1 h alone, read-out: Plasma",167 ± 89.7 nM
same,concentration at 1 h,"[2]; CF-1, mouse, plasma, po, 5 mg/kg, Study 3A, Compound A 5 mg/kg PO, 1 h, read-out: Plasma",180 nM
same,concentration at 1 h,"[2]; CF-1, mouse, plasma, po, 8 mg/kg, Study 3A, Compound A 8 mg/kg PO, 1 h, read-out: Plasma",470 ± 290 nM
same,fold higher concentrations of Compound A in plasma and brain in Study 3C than in Study 3B,"[2]; Compound A 4 mg/kg PO, 1 h",more than 10 fold
same,Plasma,"[2]; Study 3A, Compound A 8 mg/kg PO, 1 h, 8 mg/kg",0.47 µM
same,concentration at 1 h,"[2]; Study 3A, Compound A 8 mg/kg PO, 1 h, 8 mg/kg, read-out: Brain",700 nM
same,Plasma,"[2]; Study 3B, Compound A 4 mg/kg PO 1 h alone, 4 mg/kg",0.01 ± 0.01 µM
same,Plasma,"[2]; Study 3B, Compound A 4 mg/kg PO 1 h alone, listed as Cmpd A, 4 mg/kg",0.01 µM
same,concentration at 1 h,"[2]; Study 3B, Compound A 4 mg/kg PO 1 h alone, listed as Cmpd A, 4 mg/kg, read-out: Brain",30 nM
same,Plasma,"[2]; Study 3C, Compound A 4 mg/kg PO 1 h alone, 4 mg/kg",0.17 µM
same,concentration at 1 h,"[2]; Study 3C, Compound A 4 mg/kg PO 1 h alone, 4 mg/kg, read-out: Brain",410 nM
same,concentration at 1 h,"[2]; mouse, brain, oral, Studies 3B+3C combined, analyte Compound A, 4 mg/kg PO + Levetiracetam 300 mg/kg IP, read-out: Brain",210 nM
same,concentration at 1 h,"[2]; mouse, brain, oral, Study 3B, analyte Compound A, 4 mg/kg PO + Levetiracetam 300 mg/kg IP, read-out: Brain",40 nM
same,concentration at 1 h,"[2]; mouse, brain, oral, Study 3C, analyte Compound A, 4 mg/kg PO + Levetiracetam 300 mg/kg IP, read-out: Brain",383 nM
same,concentration at 1 h,"[2]; mouse, brain, po, 4 mg/kg, Studies 3B+3C combined, Compound A 4 mg/kg PO 1 h alone, read-out: Brain",220 nM
same,concentration at 1 h,"[2]; mouse, brain, po, 4 mg/kg, Study 3B, Compound A 4 mg/kg PO 1 h alone, read-out: Brain",30 ± 20 nM
same,concentration at 1 h,"[2]; mouse, brain, po, 4 mg/kg, Study 3C, Compound A 4 mg/kg PO 1 h alone, read-out: Brain",410 ± 230 nM
same,concentration at 1 h,"[2]; mouse, plasma, oral, Studies 3B+3C combined, analyte Compound A, 4 mg/kg PO + Levetiracetam 300 mg/kg IP, read-out: Plasma",90 nM
same,concentration at 1 h,"[2]; mouse, plasma, oral, Study 3B, analyte Compound A, 4 mg/kg PO + Levetiracetam 300 mg/kg IP, read-out: Plasma",20 nM
same,concentration at 1 h,"[2]; mouse, plasma, oral, Study 3C, analyte Compound A, 4 mg/kg PO + Levetiracetam 300 mg/kg IP, read-out: Plasma",170 nM
same,concentration at 1 h,"[2]; mouse, plasma, po, 4 mg/kg, Studies 3B+3C combined, Compound A 4 mg/kg PO 1 h alone, read-out: Plasma",100 nM
same,concentration at 1 h,"[2]; mouse, plasma, po, 4 mg/kg, Study 3B, Compound A 4 mg/kg PO 1 h alone, read-out: Plasma",14 ± 9 nM
same,concentration at 1 h,"[2]; mouse, plasma, po, 4 mg/kg, Study 3C, Compound A 4 mg/kg PO 1 h alone, read-out: Plasma",170 ± 90 nM
